Test results taken from patent US20090054392A1, “NAPHTHYLPYRIMIDINE, NAPHTHYLPYRAZINE AND NAPHTHYLPYRIDAZINE ANALOGS AND THEIR USE AS AGONISTS OF THE WNT-BETA-CATENIN CELLULAR MESSAGING SYSTEM” (Wyeth, priority 2007, published 2009).

Test system: Dkk1-LRP5-TCF-Luciferase
Experiment: Functional Dkk1-LRP5-TCF-Luciferase Assay in U2OS Cells
Conditions: for fold induction at 2 µM / fold induction at 20 µM / EC50: Homo sapiens, U2OS; for fold induction at 2 µM: read-out: B = TCF ACTIVITY/DMSO CONTROL Fold induction @ 2.0 uM, 2.0 uM compound; for fold induction at 20 µM: read-out: C = TCF ACTIVITY/DMSO CONTROL Fold induction @ 20.0 uM, 20.0 uM compound; for A = MAX FOLD Induction/DMSO CONTROL: maximum fold induction over DMSO control

| EC50 | A = MAX FOLD Induction/DMSO CONTROL | Compound | fold induction at 2 µM | fold induction at 20 µM |
| --- | --- | --- | --- | --- |
|  |  | O=C(N1CCOCC1)N1CC[C@H](Nc2nccc(-c3ccc4ccccc4c3)n2)C1 [N-[(3S)-1-(morpholin-4-ylcarbonyl)pyrrolidin-3-yl]-4-(2-naphthyl)pyrimidin-2-amine] | 1.12 | 1.94 |
|  |  | CCNC(=O)NCC1CCN(c2nccc(-c3ccc4ccccc4c3)n2)C1 (centres unmarked) [N-ethyl-N′-({1-[4-(2-naphthyl)pyrimidin-2-yl]pyrrolidin-3-yl}methyl)urea] | 0.93 | 1.2 |
| 1.16 µM | 2.920 fold | NCC1CCN(c2cncc(-c3ccc4ccccc4c3)n2)CC1 [1-{1-[6-(2-naphthyl)pyrazin-2-yl]piperidin-4-yl}methanamine] | 1.6 |  |
|  |  | c1ccc(N2CCN(c3nccc(-c4ccc5ccccc5c4)n3)CC2)nc1 [4-(2-naphthyl)-2-(4-pyridin-2-ylpiperazin-1-yl)pyrimidine] | 1.8 |  |
|  |  | c1ccc2cc(-c3ccnc(NC4CCCC4)n3)ccc2c1 [N-cyclopentyl-4-(2-naphthyl)pyrimidin-2-amine] | 1.95 | 0.83 |
|  |  | Cc1ccc(S(=O)(=O)N2CCC(CNc3nccc(-c4ccc5ccccc5c4)n3)CC2)cc1 [N-({1-[(4-methylphenyl)sulfonyl]piperidin-4-yl}methyl)-4-(2-naphthyl)pyrimidin-2-amine] | 1.17 | 0.92 |
|  |  | N#Cc1ccc(C(=O)NC2CCCC(Nc3nccc(-c4ccc5ccccc5c4)n3)C2)cc1 (centres unmarked) [4-cyano-N-(3-{[4-(2-naphthyl)pyrimidin-2-yl]amino}cyclohexyl)benzamide] | 1.15 | 0.24 |
|  |  | CCCOc1ccc2cc(-c3ccnc(N4CCC(CN)CC4)n3)ccc2c1 [1-{1-[4-(6-propoxy-2-naphthyl)pyrimidin-2-yl]piperidin-4-yl}methanamine] | 1.33 |  |
|  | 2.175 fold | CN(C)[C@H]1CCN(C(=O)[C@@H]2CCCN2c2nccc(-c3ccc4ccccc4c3)n2)C1 [(3S)—N,N-dimethyl-1-{1-[4-(2-naphthyl)pyrimidin-2-yl]-L-prolyl}pyrrolidin-3-amine] | 1.16 | 3.37 |
|  | 1.630 fold | CN(C)[C@@H]1CCN(C(=O)[C@H]2CCCN2c2nccc(-c3ccc4ccccc4c3)n2)C1 [(3R)—N,N-dimethyl-1-{1-[4-(2-naphthyl)pyrimidin-2-yl]-D-prolyl}pyrrolidin-3-amine] | 0.93 | 1.85 |
| 0.696 µM | 7.175 fold | CN1CCN([C@H]2CCN(c3nccc(-c4ccc5ccccc5c4)n3)C2)CC1 [2-[(3S)-3-(4-methylpiperazin-1-yl)pyrrolidin-1-yl]-4-(2-naphthyl)pyrimidine] | 5.69 | 0.01 |
|  |  | CNCCN(C)[C@@H]1CCN(c2nccc(-c3ccc4ccccc4c3)n2)C1 [N,N′-dimethyl-N-{(3R)-1-[4-(2-naphthyl)pyrimidin-2-yl]pyrrolidin-3-yl}ethane-1,2-diamine] | 1.2 |  |
|  |  | CN(C)C(=O)NCC1CCN(c2nccc(-c3ccc4ccccc4c3)n2)C1 (centres unmarked) [N,N-dimethyl-N′-({1-[4-(2-naphthyl)pyrimidin-2-yl]pyrrolidin-3-yl}methyl)urea] | 0.84 | 1.15 |
| 1.52 µM | 2.750 fold | NC(=O)N1CC[C@H](Nc2nccc(-c3ccc4ccccc4c3)n2)C1 [(3S)-3-{[4-(2-naphthyl)pyrimidin-2-yl]amino}pyrrolidine-1-carboxamide] | 2.05 | 2.94 |
|  |  | CC(NC(=O)OC(C)(C)C)C1CCN(c2nccc(-c3ccc4ccccc4c3)n2)CC1 (centres unmarked) [tert-butyl (1-{1-[4-(2-naphthyl)pyrimidin-2-yl]piperidin-4-yl}ethyl)carbamate] |  | 0.81 |
| 1.07 µM | 5.015 fold | N#CC1CCN(c2nccc(-c3ccc4ccccc4c3)n2)CC1 [1-[4-(2-naphthyl)pyrimidin-2-yl]piperidine-4-carbonitrile] | 2.79 |  |
|  |  | O=C(NCCC1CCN(c2nccc(-c3ccc4ccccc4c3)n2)CC1)C(F)(F)F [2,2,2-trifluoro-N-(2-{1-[4-(2-naphthyl)pyrimidin-2-yl]piperidin-4-yl}ethyl)acetamide] | 1.77 | 1.04 |
|  |  | O[C@H]1CCN(CC2CCN(c3nccc(-c4ccc5ccccc5c4)n3)C2)C1 (stereo partly drawn) [(3S)-1-({1-[4-(2-naphthyl)pyrimidin-2-yl]pyrrolidin-3-yl}methyl)pyrrolidin-3-ol] | 3.2 |  |
|  |  | O=C1CCN(c2nccc(-c3ccc4ccccc4c3)n2)CC1 [1-[4-(2-naphthyl)pyrimidin-2-yl]piperidin-4-one] | 1.43 | 1.19 |
|  |  | CC(C)(C)OC(=O)N[C@@H](CO)C1CCN(c2nccc(-c3ccc4ccccc4c3)n2)CC1 [tert-butyl ((1R)-2-hydroxy-1-{1-[4-(2-naphthyl)pyrimidin-2-yl]piperidin-4-yl}ethyl)carbamate] | 1.13 | 0.35 |
|  |  | N=C(N)OC(=N)NCCN1CCN(c2nccc(-c3ccc4ccccc4c3)n2)CC1 [N-(2-{4-[4-(2-naphthyl)pyrimidin-2-yl]piperazin-1-yl}ethyl)dicarbonimidic diamide] | 1.22 | 0.49 |
|  |  | CN(C)S(=O)(=O)NC1CCCN(c2nccc(-c3ccc4ccccc4c3)n2)CC1 (centres unmarked) [N,N-dimethyl-N′-{1-[4-(2-naphthyl)pyrimidin-2-yl]azepan-4-yl}sulfamide] | 1.12 | 1.01 |
|  |  | N=C(N)N[C@@H]1CCN(c2nccc(-c3ccc4ccccc4c3)n2)C1 [N-{(3R)-1-[4-(2-naphthyl)pyrimidin-2-yl]pyrrolidin-3-yl}guanidine] | 1.63 | 0.65 |
|  |  | CC(C1CCN(c2nccc(-c3ccc4ccccc4c3)n2)CC1)[N+](=O)[O-] (centres unmarked) [4-(2-naphthyl)-2-[4-(1-nitroethyl)piperidin-1-yl]pyrimidine] |  | 1.44 |
|  | 1.230 fold | c1ccc2cc(-c3ccnc(NC4CCCCC4)n3)ccc2c1 [N-cyclohexyl-4-(2-naphthyl)pyrimidin-2-amine] | 1.21 | 1.51 |
|  | 1.020 fold | CN1CCN([C@@H]2CCN(c3nccc(-c4ccc5ccccc5c4)n3)C2)CC1 [2-[(3R)-3-(4-methylpiperazin-1-yl)pyrrolidin-1-yl]-4-(2-naphthyl)pyrimidine] | 3.67 | 0.01 |
|  |  | CN(C)S(=O)(=O)N1CC(CNc2nccc(-c3ccc4ccccc4c3)n2)C1 [N,N-dimethyl-3-({[4-(2-naphthyl)pyrimidin-2-yl]amino}methyl)azetidine-1-sulfonamide] | 1.47 | 1.14 |
| 25.9 µM | 3.620 fold | O=C(N[C@H]1CCN(c2nccc(-c3ccc4ccccc4c3)n2)C1)C(F)(F)F [2,2,2-trifluoro-N-{(3S)-1-[4-(2-naphthyl)pyrimidin-2-yl]pyrrolidin-3-yl}acetamide] | 1.59 | 1.66 |
